Test results as given in ChEMBL document CHEMBL5303573, “Mapping human microbiome drug metabolism by gut bacteria and their genes” (Nature, 2019).

Tests used:
[1] = The drug is tested on Bifidobacterium longum subsp. Infantis strain: CCUG52486 for biotransformation. The drug concentrations were measured before and after a 12-h incubation by liquid-chromatography-coupled mass spectrometry (LC–MS); conditions: 2 µM
[2] = The drug is tested on Collinsella intestinalis strain: DSM13280 for biotransformation. The drug concentrations were measured before and after a 12-h incubation by liquid-chromatography-coupled mass spectrometry (LC–MS); conditions: 2 µM
[3] = The drug is tested on Eggerthella lenta strain: ATCC25559 for biotransformation. The drug concentrations were measured before and after a 12-h incubation by liquid-chromatography-coupled mass spectrometry (LC–MS); conditions: 2 µM
[4] = The drug is tested on Bacteroides caccae strain: ATCC43185 for biotransformation. The drug concentrations were measured before and after a 12-h incubation by liquid-chromatography-coupled mass spectrometry (LC–MS); conditions: 2 µM
[5] = The drug is tested on Bacteroides coprophilus strain: DSM18228 for biotransformation. The drug concentrations were measured before and after a 12-h incubation by liquid-chromatography-coupled mass spectrometry (LC–MS); conditions: 2 µM
[6] = The drug is tested on Bacteroides dorei strain: DSM17855 for biotransformation. The drug concentrations were measured before and after a 12-h incubation by liquid-chromatography-coupled mass spectrometry (LC–MS); conditions: phocaeicola dorei, 2 µM
[7] = The drug is tested on Bacteroides finegoldii strain: DSM17565 for biotransformation. The drug concentrations were measured before and after a 12-h incubation by liquid-chromatography-coupled mass spectrometry (LC–MS); conditions: 2 µM
[8] = The drug is tested on Bacteroides pectinophilus strain: ATCC43243 for biotransformation. The drug concentrations were measured before and after a 12-h incubation by liquid-chromatography-coupled mass spectrometry (LC–MS); conditions: 2 µM
[9] = The drug is tested on Bacteroides uniformis strain: ATCC8492 for biotransformation. The drug concentrations were measured before and after a 12-h incubation by liquid-chromatography-coupled mass spectrometry (LC–MS); conditions: 2 µM
[10] = The drug is tested on Bacteroides sp. WH2 strain: WH2 for biotransformation. The drug concentrations were measured before and after a 12-h incubation by liquid-chromatography-coupled mass spectrometry (LC–MS); conditions: bacteroides sp. wh2, 12 h, 2 µM
[11] = The drug is tested on Odoribacter splanchnicus strain: fecal isolate for biotransformation. The drug concentrations were measured before and after a 12-h incubation by liquid-chromatography-coupled mass spectrometry (LC–MS); conditions: 2 µM
[12] = The drug is tested on Anaerotruncus colihominis strain: DSM17241 for biotransformation. The drug concentrations were measured before and after a 12-h incubation by liquid-chromatography-coupled mass spectrometry (LC–MS); conditions: 2 µM
[13] = The drug is tested on Blautia luti strain: DSM14534 for biotransformation. The drug concentrations were measured before and after a 12-h incubation by liquid-chromatography-coupled mass spectrometry (LC–MS); assay type: ADME; parameters: dose 2 uM, timepoint 0 vs 12 hours; conditions: 2 µM
[14] = The drug is tested on Clostridium asparagiforme strain: DSM15981 for biotransformation. The drug concentrations were measured before and after a 12-h incubation by liquid-chromatography-coupled mass spectrometry (LC–MS); assay type: ADME; parameters: dose 2 uM, timepoint 0 vs 12 hours; conditions: enterocloster asparagiformis, 2 µM
[15] = The drug is tested on Clostridium ramosum strain: DSM1402 for biotransformation. The drug concentrations were measured before and after a 12-h incubation by liquid-chromatography-coupled mass spectrometry (LC–MS); conditions: thomasclavelia ramosa, 2 µM
[16] = The drug is tested on Clostridium scindens strain: ATCC35704 for biotransformation. The drug concentrations were measured before and after a 12-h incubation by liquid-chromatography-coupled mass spectrometry (LC–MS); conditions: 2 µM
[17] = The drug is tested on Clostridium symbiosum strain: ATCC14940 for biotransformation. The drug concentrations were measured before and after a 12-h incubation by liquid-chromatography-coupled mass spectrometry (LC–MS); conditions: 2 µM
[18] = The drug is tested on Coprococcus comes strain: ATCC27758 for biotransformation. The drug concentrations were measured before and after a 12-h incubation by liquid-chromatography-coupled mass spectrometry (LC–MS); assay type: ADME; parameters: dose 2 uM, timepoint 0 vs 12 hours; conditions: 2 µM
[19] = The drug is tested on Eubacterium hallii strain: DSM3353 for biotransformation. The drug concentrations were measured before and after a 12-h incubation by liquid-chromatography-coupled mass spectrometry (LC–MS); conditions: anaerobutyricum hallii, 2 µM
[20] = The drug is tested on Eubacterium ventriosum strain: ATCC27560 for biotransformation. The drug concentrations were measured before and after a 12-h incubation by liquid-chromatography-coupled mass spectrometry (LC–MS); assay type: ADME; parameters: dose 2 uM, timepoint 0 vs 12 hours; conditions: 2 µM
[21] = The drug is tested on Ruminococcus gnavus strain: ATCC29149 for biotransformation. The drug concentrations were measured before and after a 12-h incubation by liquid-chromatography-coupled mass spectrometry (LC–MS); conditions: mediterraneibacter gnavus, 2 µM
[22] = The drug is tested on Ruminococcus lactaris strain: ATCC29176 for biotransformation. The drug concentrations were measured before and after a 12-h incubation by liquid-chromatography-coupled mass spectrometry (LC–MS); conditions: 2 µM
[23] = The drug is tested on Ruminococcus torques strain: ATCC27756 for biotransformation. The drug concentrations were measured before and after a 12-h incubation by liquid-chromatography-coupled mass spectrometry (LC–MS); assay type: ADME; parameters: dose 2 uM, timepoint 0 vs 12 hours; conditions: 2 µM
[24] = The drug is tested on Subdoligranulum variabile strain: DSM15176 for biotransformation. The drug concentrations were measured before and after a 12-h incubation by liquid-chromatography-coupled mass spectrometry (LC–MS); conditions: 2 µM
[25] = The drug is tested on Escherichia coli strain: BW25113 for biotransformation. The drug concentrations were measured before and after a 12-h incubation by liquid-chromatography-coupled mass spectrometry (LC–MS); conditions: 2 µM
[26] = bacteroides fragilis, 12 h, 2 µM
Description: The drug is tested on Bacteroides fragilis strain: NCTC 9343 for biotransformation. The drug concentrations were measured before and after a 12-h incubation by liquid-chromatography-coupled mass spectrometry (LC–MS)

[27] = bacteroides fragilis, 12 h, 2 µM; remark: listed apart in the source
Description: The drug is tested on Bacteroides fragilis strain: 3397 (T10) for biotransformation. The drug concentrations were measured before and after a 12-h incubation by liquid-chromatography-coupled mass spectrometry (LC–MS)

[28] = bacteroides intestinalis, 12 h, 2 µM
Description: The drug is tested on Bacteroides intestinalis strain: DSM17393 for biotransformation. The drug concentrations were measured before and after a 12-h incubation by liquid-chromatography-coupled mass spectrometry (LC–MS)

[29] = bacteroides stercoris, 12 h, 2 µM
Description: The drug is tested on Bacteroides stercoris strain: ATCC43183 for biotransformation. The drug concentrations were measured before and after a 12-h incubation by liquid-chromatography-coupled mass spectrometry (LC–MS)

[30] = bacteroides thetaiotaomicron, 12 h, 2 µM
Description: The drug is tested on Bacteroides thetaiotaomicron strain: VPI-5482 for biotransformation. The drug concentrations were measured before and after a 12-h incubation by liquid-chromatography-coupled mass spectrometry (LC–MS)

[31] = bacteroides thetaiotaomicron, 12 h, 2 µM; remark: listed apart in the source
Description: The drug is tested on Bacteroides thetaiotaomicron strain: 3731 for biotransformation. The drug concentrations were measured before and after a 12-h incubation by liquid-chromatography-coupled mass spectrometry (LC–MS)

[32] = parabacteroides distasonis, 12 h, 2 µM
Description: The drug is tested on Parabacteroides distasonis strain: ATCC8503 for biotransformation. The drug concentrations were measured before and after a 12-h incubation by liquid-chromatography-coupled mass spectrometry (LC–MS)

[33] = parabacteroides johnsonii, 12 h, 2 µM
Description: The drug is tested on Parabacteroides johnsonii strain: DSM18315 for biotransformation. The drug concentrations were measured before and after a 12-h incubation by liquid-chromatography-coupled mass spectrometry (LC–MS)

[34] = segatella copri, 12 h, 2 µM
Description: The drug is tested on Prevotella copri strain: DSM18205 for biotransformation. The drug concentrations were measured before and after a 12-h incubation by liquid-chromatography-coupled mass spectrometry (LC–MS)

[35] = anaerostipes sp., 12 h, 2 µM
Description: The drug is tested on Anaerostipes sp. strain: fecal isolate for biotransformation. The drug concentrations were measured before and after a 12-h incubation by liquid-chromatography-coupled mass spectrometry (LC–MS)

[36] = enterocloster bolteae, 12 h, 2 µM
Description: The drug is tested on Clostridium bolteae strain: ATCCBAA-613 for biotransformation. The drug concentrations were measured before and after a 12-h incubation by liquid-chromatography-coupled mass spectrometry (LC–MS)

[37] = limosilactobacillus reuteri cf48-3a, 12 h, 2 µM
Description: The drug is tested on Lactobacillus reuteri CF48-3A strain: BEI HM-102 for biotransformation. The drug concentrations were measured before and after a 12-h incubation by liquid-chromatography-coupled mass spectrometry (LC–MS)

With `CC#CCn1c(N2CCC[C@@H](N)C2)nc2c1c(=O)n(Cc1nc(C)c3ccccc3n1)c(=O)n2C` [LINAGLIPTIN] the “Bacterial Biotransformation” value [1] was “Compound NOT metabolized”, the “Bacterial Biotransformation” value [2] was “Compound NOT metabolized” and the “Bacterial Biotransformation” value [3] was “Compound NOT metabolized”. For the same compound, the “Bacterial Biotransformation” value [4] was “Compound metabolized”, the “Bacterial Biotransformation” value [5] was “Compound metabolized” and the “Bacterial Biotransformation” value [6] was “Compound metabolized”. The “Bacterial Biotransformation” value [7] was “Compound metabolized”, the “Bacterial Biotransformation” value [8] was “Compound NOT metabolized” and the “Bacterial Biotransformation” value [9] was “Compound metabolized”. For the same compound, the “Bacterial Biotransformation” value [10] was “Compound NOT metabolized”, the “Bacterial Biotransformation” value [11] was “Compound metabolized” and the “Bacterial Biotransformation” value [12] was “Compound NOT metabolized”. The “Bacterial Biotransformation” value [13] was “Compound NOT metabolized”, the “Bacterial Biotransformation” value [14] was “Compound NOT metabolized” and the “Bacterial Biotransformation” value [15] was “Compound NOT metabolized”. For the same compound, the “Bacterial Biotransformation” value [16] was “Compound NOT metabolized”, the “Bacterial Biotransformation” value [17] was “Compound NOT metabolized” and the “Bacterial Biotransformation” value [18] was “Compound NOT metabolized”. For the same compound, the “Bacterial Biotransformation” value [19] was “Compound NOT metabolized”, the “Bacterial Biotransformation” value [20] was “Compound NOT metabolized” and the “Bacterial Biotransformation” value [21] was “Compound NOT metabolized”. For the same compound, the “Bacterial Biotransformation” value [22] was “Compound NOT metabolized”, the “Bacterial Biotransformation” value [23] was “Compound NOT metabolized” and the “Bacterial Biotransformation” value [24] was “Compound NOT metabolized”. For the same compound, the “Bacterial Biotransformation” value [25] was “Compound NOT metabolized”, the “Bacterial Biotransformation” value [26] was “Compound metabolized” and the “Bacterial Biotransformation” value [27] was “Compound metabolized”. The “Bacterial Biotransformation” value [28] was “Compound metabolized”, the “Bacterial Biotransformation” value [29] was “Compound metabolized” and the “Bacterial Biotransformation” value [30] was “Compound metabolized”. The “Bacterial Biotransformation” value [31] was “Compound metabolized”, the “Bacterial Biotransformation” value [32] was “Compound metabolized” and the “Bacterial Biotransformation” value [33] was “Compound metabolized”. The “Bacterial Biotransformation” value [34] was “Compound metabolized”, the “Bacterial Biotransformation” value [35] was “Compound NOT metabolized” and the “Bacterial Biotransformation” value [36] was “Compound NOT metabolized”. For the same compound, the “Bacterial Biotransformation” value [37] was “Compound NOT metabolized”.
